Test results published in patent US5945430A, “Aminooxyamide tricyclic inhibitors of farnesyl-protein transferase” (Schering Corporation, priority 1998, dated 1999).

Legend:
[1] = target: T1, H-ras FPT (Ras-CVLS farnesylation by partially purified rat brain farnesyl protein transferase (FPT)) (Rattus norvegicus, UniProt Q02293+Q04631); assay: FPT IC50 (inhibition of farnesyl protein transferase, in vitro enzyme assay); format: biochemical
T1 construct: partially purified rat brain farnesyl protein transferase (FPT); from tissue; host or cells: rat brain, partially purified

[2] = test system: Ras processing in COS cells; assay: COS IC50, cell-based assay: COS cells activity inhibition of Ras processing
Description: 2. Cell-based assay. COS IC50 values refer to the COS cells activity inhibition of Ras processing, are determined by the methods disclosed in […] or WO 95/10516.

SMILES | IC50 [1] [nM] | IC50 [2] [nM]
O=C(NOCC(=O)N1CCC([C@H]2c3ncc(Br)cc3CCc3cc(Cl)cc(Br)c32)CC1)c1ccccc1 [Example 1] | 27 | 
O=C(CO/N=C/c1cc[n+]([O-])cc1)N1CCC([C@H]2c3ncc(Br)cc3CCc3cc(Cl)cc(Br)c32)CC1 [Example 6] |  | 690
NOCC(=O)N1CCC([C@H]2c3ncc(Br)cc3CCc3cc(Cl)cc(Br)c32)CC1 [Example 15, (+)-1-[(aminooxy)acetyl]-4-(3,10-dibromo-8-chloro-6,11-dihydro-5H-benzo[5,6]cyclohepta[1,2-b]pyridin-11(R)-yl)piperidine] | 32 | 
